Test system: Plasmodium berghei
Assay: Luciferase/luciferin-expressing antifolate-resistant parasites were used to infect a culture of HepG2 cells that were pre-incubated with compounds. Infected hepatocytes emit light due to the luciferase reaction. Assay results are presented as the percent inhibition of light emission compared to control. […]
Type: functional
Details: sporozoite; for IC90: read-out: LUCIFERASE INFECTION ASSAY - IC90
[1] = PBLUC_HILL_SLOPE 2.05, PBLUC_R_SQUARED 0.76, read-out: LUCIFERASE INFECTION ASSAY - IC50

CN(C)c1cccc(-c2cnc3cnc(-c4ccncc4)cn23)c1
IC50 (PBLUC_HILL_SLOPE 2.07, PBLUC_R_SQUARED 0.374, read-out: LUCIFERASE INFECTION ASSAY - IC50): 6.53 µM | IC90: > 10.5 µM

Cc1noc(C)c1S(=O)(=O)N1CCCN(C(=O)c2cc3c(s2)-c2ccccc2CC3)CC1
IC50 (PBLUC_HILL_SLOPE 2.04, PBLUC_R_SQUARED 0.622, read-out: LUCIFERASE INFECTION ASSAY - IC50): 4.56 µM | IC90: > 10 µM

COc1ccc(-c2nnc(SC(C)C(=O)NC(C)c3ccc(Cl)cc3Cl)[nH]2)cc1 (stereo not given)
IC50 (PBLUC_HILL_SLOPE 2.09, PBLUC_R_SQUARED 0.0748, read-out: LUCIFERASE INFECTION ASSAY - IC50): 5.53 µM | IC90: > 10 µM

Cc1cc(NC(=O)N2CCN(Cc3cccc4ccccc34)CC2)no1
IC50 (PBLUC_HILL_SLOPE 2.02, PBLUC_R_SQUARED 0.015, read-out: LUCIFERASE INFECTION ASSAY - IC50): > 10 µM | IC90: > 10 µM

CCN(Cc1ccc2c(c1)OCO2)C(=O)/C=C/c1c(C)nc2sc(C)cn12
IC50 (PBLUC_HILL_SLOPE 2.08, PBLUC_R_SQUARED 0.691, read-out: LUCIFERASE INFECTION ASSAY - IC50): 8.61 µM | IC90: > 10 µM

Cc1cc(C)cc(NC(=O)c2cc(C(C)(C)C)n(-c3ccccc3)c2C)c1
IC50 [1]: 1.74 µM | IC90: 5.09 µM

Cc1c(C(=O)Nc2nc3c(C)cccc3s2)[nH]c2c1C(=O)CCC2
IC50 (PBLUC_HILL_SLOPE 2.07, PBLUC_R_SQUARED 0.0587, read-out: LUCIFERASE INFECTION ASSAY - IC50): 5.05 µM | IC90: > 10 µM

Cc1nc(C2CC2)nc2sc(-c3nc(-c4cccs4)no3)c(N)c12
IC50 (PBLUC_HILL_SLOPE 2.09, PBLUC_R_SQUARED 0.41, read-out: LUCIFERASE INFECTION ASSAY - IC50): 4.67 µM | IC90: > 10 µM

Cc1ccc(-c2cnn3c(N4CCCC4)cc(C)nc23)cc1
IC50 (PBLUC_HILL_SLOPE 2.02, PBLUC_R_SQUARED 0.442, read-out: LUCIFERASE INFECTION ASSAY - IC50): 3.13 µM | IC90: 9.26 µM

COc1ccc(-c2nc3cnc(Nc4cccc(OC(F)(F)F)c4)cc3n2C)cc1OC
IC50 (PBLUC_HILL_SLOPE 2.08, PBLUC_R_SQUARED 0.244, read-out: LUCIFERASE INFECTION ASSAY - IC50): > 10 µM | IC90: > 10 µM

CSc1cnc(-n2c(-c3ccc(C)cc3)cs/c2=N\C(=O)c2ccccc2)nc1
IC50 (PBLUC_HILL_SLOPE 2.11, PBLUC_R_SQUARED 0.145, read-out: LUCIFERASE INFECTION ASSAY - IC50): > 10 µM | IC90: > 10 µM

Clc1sc2ccccc2c1-c1nnc(SCc2nc3ccccn3c2Br)n1-c1ccccc1
IC50 (PBLUC_HILL_SLOPE 2.01, PBLUC_R_SQUARED 0.722, read-out: LUCIFERASE INFECTION ASSAY - IC50): 6.1 µM | IC90: > 10 µM

O=S(=O)(c1ccc2ccccc2c1)N1CCCC1c1nnc2ccccn12 (stereo not given)
IC50 (PBLUC_HILL_SLOPE 2.1, PBLUC_R_SQUARED 0.614, read-out: LUCIFERASE INFECTION ASSAY - IC50): 1.96 µM | IC90: 5.59 µM

COc1cc(-c2nc3ccc(NC(=O)c4cccs4)cn3n2)cc(OC)c1OC
IC50 (PBLUC_HILL_SLOPE 2.1, PBLUC_R_SQUARED 0.836, read-out: LUCIFERASE INFECTION ASSAY - IC50): 2.19 µM | IC90: 6.23 µM

c1cc2[nH]c(-c3ccsc3)cc2c(Nc2ccc(N3CCOCC3)cc2)n1
IC50 (PBLUC_HILL_SLOPE 2.04, PBLUC_R_SQUARED 0.351, read-out: LUCIFERASE INFECTION ASSAY - IC50): 6.37 µM | IC90: > 10 µM

CC(C)N(C(=O)CSc1nnnn1C)c1ccc(Nc2ccccc2)cc1
IC50 (PBLUC_HILL_SLOPE 2.1, PBLUC_R_SQUARED 0.364, read-out: LUCIFERASE INFECTION ASSAY - IC50): > 10 µM | IC90: > 10 µM

CC1CCCCN1CCCNC(=S)Nc1cc(C(F)(F)F)cc(C(F)(F)F)c1 (stereo not given)
IC50 (PBLUC_HILL_SLOPE 2.02, PBLUC_R_SQUARED 0.36, read-out: LUCIFERASE INFECTION ASSAY - IC50): 3.73 µM | IC90: > 7.72 µM

Cc1cc(/C=N/Nc2nncc3ccccc23)c(C)n1-c1ccc(I)cc1
IC50 (PBLUC_HILL_SLOPE 2.06, PBLUC_R_SQUARED 0.597, read-out: LUCIFERASE INFECTION ASSAY - IC50): 6.98 µM | IC90: > 10 µM

O=C(Nc1ncccc1O)c1ccc(-n2ccnc2)cc1
IC50 (PBLUC_HILL_SLOPE 2.04, 2.50, 2.35, PBLUC_R_SQUARED 0.554, 0.491, 0.399, read-out: LUCIFERASE INFECTION ASSAY - IC50): 3.31 µM | IC90: 8.71 µM

CC(=O)c1c(C)[nH]c(C(=O)OCC(=O)Nc2c(C)nn(-c3ccccc3)c2C)c1C
IC50 (PBLUC_HILL_SLOPE 2.08, PBLUC_R_SQUARED 0.0451, read-out: LUCIFERASE INFECTION ASSAY - IC50): > 10 µM | IC90: > 10 µM

CCc1c(C)sc2[nH]c(-c3ccc(C(=O)N4CCN(S(=O)(=O)c5c(Cl)cccc5Cl)CC4)cc3)nc(=O)c12
IC50 [1]: 1.49 µM | IC90: 4.36 µM

CC(C)N1CCN(c2ccc(-c3cn4c(-c5ccccc5)cnc4cn3)cc2)CC1
IC50 (PBLUC_HILL_SLOPE 2.04, PBLUC_R_SQUARED 0.328, read-out: LUCIFERASE INFECTION ASSAY - IC50): 5.96 µM | IC90: > 8.3 µM

Cc1occc1C(=O)NNC(=O)c1csc(-c2ccc(C(C)C)cc2)n1
IC50 (PBLUC_HILL_SLOPE 2.06, PBLUC_R_SQUARED 0.34, read-out: LUCIFERASE INFECTION ASSAY - IC50): 8.1 µM | IC90: > 10 µM

COCCNc1ccc(C(=O)NCCN2CCN(c3cccc(C)c3)CC2)cc1[N+](=O)[O-]
IC50 (PBLUC_HILL_SLOPE 2.05, PBLUC_R_SQUARED 0.556, read-out: LUCIFERASE INFECTION ASSAY - IC50): 6.29 µM | IC90: > 10 µM

CCn1c2ccccc2c2cc(NC(=O)CN3CCN(Cc4ccc5c(c4)OCO5)CC3)ccc21
IC50 (PBLUC_HILL_SLOPE 2.07, PBLUC_R_SQUARED 0.0912, read-out: LUCIFERASE INFECTION ASSAY - IC50): 8.08 µM | IC90: > 10 µM

CN1CCN(c2ccccc2/C=N\Nc2cc(Cl)ccc2Cl)CC1
IC50 (PBLUC_HILL_SLOPE 2.04, PBLUC_R_SQUARED 0.6, read-out: LUCIFERASE INFECTION ASSAY - IC50): 3.92 µM | IC90: > 9.08 µM

CSc1nc2c3c(sc2c2nnc(SCCN(C)C)n12)CCCC3
IC50 (PBLUC_HILL_SLOPE 2.05, PBLUC_R_SQUARED 0.263, read-out: LUCIFERASE INFECTION ASSAY - IC50): 5.45 µM | IC90: > 8.69 µM

O=S(=O)(CCN1CCC(C(c2ccccc2)c2ccccc2)CC1)c1ccc(F)cc1
IC50 (PBLUC_HILL_SLOPE 2.04, PBLUC_R_SQUARED 0.498, read-out: LUCIFERASE INFECTION ASSAY - IC50): 2.02 µM | IC90: 5.93 µM

COc1ccc(-c2cnc3cnc(-c4cnn(Cc5ccccc5)c4)cn23)cc1
IC50 (PBLUC_HILL_SLOPE 2.08, PBLUC_R_SQUARED 0.432, read-out: LUCIFERASE INFECTION ASSAY - IC50): 7.68 µM | IC90: > 8.65 µM

N#CC(C(=O)COC(=O)c1cc(Br)ccc1O)=C1Nc2ccccc2N1
IC50 (PBLUC_HILL_SLOPE 2.06, PBLUC_R_SQUARED 0.487, read-out: LUCIFERASE INFECTION ASSAY - IC50): 6.23 µM | IC90: > 10 µM

O=C(Nc1cccc(-c2nc(-c3cccc(F)c3)cs2)c1)C1CC1
IC50 (PBLUC_HILL_SLOPE 2.07, PBLUC_R_SQUARED 0.228, read-out: LUCIFERASE INFECTION ASSAY - IC50): 5.44 µM | IC90: > 10 µM

CSc1cccc(N2C(=O)C=C(C)C2=O)c1
IC50 (PBLUC_HILL_SLOPE 2.08, PBLUC_R_SQUARED 0.24, read-out: LUCIFERASE INFECTION ASSAY - IC50): 13.4 µM | IC90: > 14.1 µM

CCN(CC)S(=O)(=O)c1cccc(C(=O)N/N=C(\C)c2cc(Cl)ccc2Cl)c1
IC50 (PBLUC_HILL_SLOPE 2.08, PBLUC_R_SQUARED 0.0166, read-out: LUCIFERASE INFECTION ASSAY - IC50): 7.74 µM | IC90: > 10 µM

CC(C)NC(=O)N1CCCC(C(=O)Nc2nc3c(ccc4ccccc43)s2)C1 (stereo not given)
IC50 (PBLUC_HILL_SLOPE 2.07, PBLUC_R_SQUARED 0.824, read-out: LUCIFERASE INFECTION ASSAY - IC50): 4.39 µM | IC90: > 10 µM

Cc1ccc(-c2nn(-c3ccccc3)cc2/C=C/C(=O)NCc2ccc(-n3ccnc3)nc2)cc1
IC50 (PBLUC_HILL_SLOPE 2.1, PBLUC_R_SQUARED 0.668, read-out: LUCIFERASE INFECTION ASSAY - IC50): 5.12 µM | IC90: > 10 µM

O=C1CCc2cc(-c3csc(NC(=O)c4ccc(-n5cnc6ccccc65)cc4)n3)ccc2N1
IC50 (PBLUC_HILL_SLOPE 2.11, 11.5, PBLUC_R_SQUARED 0.409, 0.367, read-out: LUCIFERASE INFECTION ASSAY - IC50): 3.63 µM | IC90: 3.68 µM

CC1CCC(NC(=O)[C@H](Cc2ccccc2)NC(=O)C(c2ccccc2)c2ccccc2)CC1 (stereo not given in full)
IC50 (PBLUC_HILL_SLOPE 2.1, PBLUC_R_SQUARED 0.545, read-out: LUCIFERASE INFECTION ASSAY - IC50): 4.82 µM | IC90: > 10 µM

CN(Cc1nc(N)c2c3c(sc2n1)CCCC3)Cc1cccs1
IC50 (PBLUC_HILL_SLOPE 2.01, PBLUC_R_SQUARED 0.418, read-out: LUCIFERASE INFECTION ASSAY - IC50): 4.1 µM | IC90: > 10 µM

O=C(NCCSCc1c(F)cccc1Cl)c1cccs1
IC50 (PBLUC_HILL_SLOPE 2.01, PBLUC_R_SQUARED 0.48, read-out: LUCIFERASE INFECTION ASSAY - IC50): 3.94 µM | IC90: > 10 µM

COc1cccc(C2CNC(c3ccc(Cl)cc3)c3[nH]c4ccccc4c32)c1OC (stereo not given)
IC50 (PBLUC_HILL_SLOPE 2.02, PBLUC_R_SQUARED 0.709, read-out: LUCIFERASE INFECTION ASSAY - IC50): 1.84 µM | IC90: 5.44 µM
